In the kinase profiling compilation of Christmann-Franck et al. (2016):

Tests used:
IKBKB (human) = IKBKB (human) (UniProt O14920)
CSNK1D (human) = CSNK1D (human) (UniProt P48730)
MAPKAPK2 (human) = MAPKAPK2 (human) (UniProt P49137)
FLT1 (human) = FLT1 (human) (UniProt P17948)
PIM1 (human) = PIM1 (human) (UniProt P11309)
TBK1 (human) = TBK1 (human) (UniProt Q9UHD2)
DYRK3 (human) = DYRK3 (human) (UniProt O43781)
MARK3 (human) = MARK3 (human) (UniProt P27448)
MKNK1 (human) = MKNK1 (human) (UniProt Q9BUB5)
MELK (human) = MELK (human) (UniProt Q14680)
PAK6 (human) = PAK6 (human) (UniProt Q9NQU5)
PRKCZ (human) = PRKCZ (human) (UniProt Q05513)
RPS6KA5 KD1 KD2 (human) = RPS6KA5 KD1 KD2 (human) (UniProt O75582)
DYRK2 (human) = DYRK2 (human) (UniProt Q92630)
EPHA2 (human) = EPHA2 (human) (UniProt P29317)
CDK2 CCNA2 (human) = CDK2 CCNA2 (human) (UniProt P20248+P24941)
BTK (human) = BTK (human) (UniProt Q06187)
FGFR1 (human) = FGFR1 (human) (UniProt P11362)
MAPK9 (human) = MAPK9 (human) (UniProt P45984)
MAPK13 (human) = MAPK13 (human) (UniProt O15264)
PLK1 (human) = PLK1 (human) (UniProt P53350)
NEK2 (human) = NEK2 (human) (UniProt P51955)
PAK7 (human) = PAK7 (human) (UniProt Q9P286)
PKN2 (human) = PKN2 (human) (UniProt Q16513)
CAMKK2 (human) = CAMKK2 (human) (UniProt Q96RR4)
CSNK2A1 (human) = CSNK2A1 (human) (UniProt P68400)
ROCK2 (rat) = conditions: accession and sequence are those of the human protein
BRSK2 (human) = BRSK2 (human) (UniProt Q8IWQ3)
IKBKE (human) = IKBKE (human) (UniProt Q14164)
IGF1R (human) = IGF1R (human) (UniProt P08069)
MAPK12 (human) = MAPK12 (human) (UniProt P53778)
MAPK1 (human) = MAPK1 (human) (UniProt P28482)
MAPK15 (human) = MAPK15 (human) (UniProt Q8TD08)
STK3 (human) = STK3 (human) (UniProt Q13188)

CAMKK2 (human), sequence (Q96RR4 whole entry, looked up): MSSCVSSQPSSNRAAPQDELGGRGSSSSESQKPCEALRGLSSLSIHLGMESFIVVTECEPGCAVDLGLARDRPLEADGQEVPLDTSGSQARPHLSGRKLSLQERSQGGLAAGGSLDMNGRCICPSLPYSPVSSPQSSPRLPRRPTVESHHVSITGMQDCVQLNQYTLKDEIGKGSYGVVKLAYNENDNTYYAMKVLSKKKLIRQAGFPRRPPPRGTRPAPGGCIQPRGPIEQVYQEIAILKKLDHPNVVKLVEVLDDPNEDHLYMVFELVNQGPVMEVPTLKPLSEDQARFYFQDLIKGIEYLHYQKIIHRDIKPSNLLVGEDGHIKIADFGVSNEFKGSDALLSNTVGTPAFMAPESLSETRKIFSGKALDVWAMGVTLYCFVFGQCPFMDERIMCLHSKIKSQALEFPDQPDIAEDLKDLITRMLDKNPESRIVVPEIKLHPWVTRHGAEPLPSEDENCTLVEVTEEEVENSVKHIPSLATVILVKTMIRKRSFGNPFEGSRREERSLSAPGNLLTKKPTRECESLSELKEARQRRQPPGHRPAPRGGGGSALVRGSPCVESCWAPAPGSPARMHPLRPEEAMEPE
PAK6 (human), sequence (Q9NQU5 whole entry, looked up): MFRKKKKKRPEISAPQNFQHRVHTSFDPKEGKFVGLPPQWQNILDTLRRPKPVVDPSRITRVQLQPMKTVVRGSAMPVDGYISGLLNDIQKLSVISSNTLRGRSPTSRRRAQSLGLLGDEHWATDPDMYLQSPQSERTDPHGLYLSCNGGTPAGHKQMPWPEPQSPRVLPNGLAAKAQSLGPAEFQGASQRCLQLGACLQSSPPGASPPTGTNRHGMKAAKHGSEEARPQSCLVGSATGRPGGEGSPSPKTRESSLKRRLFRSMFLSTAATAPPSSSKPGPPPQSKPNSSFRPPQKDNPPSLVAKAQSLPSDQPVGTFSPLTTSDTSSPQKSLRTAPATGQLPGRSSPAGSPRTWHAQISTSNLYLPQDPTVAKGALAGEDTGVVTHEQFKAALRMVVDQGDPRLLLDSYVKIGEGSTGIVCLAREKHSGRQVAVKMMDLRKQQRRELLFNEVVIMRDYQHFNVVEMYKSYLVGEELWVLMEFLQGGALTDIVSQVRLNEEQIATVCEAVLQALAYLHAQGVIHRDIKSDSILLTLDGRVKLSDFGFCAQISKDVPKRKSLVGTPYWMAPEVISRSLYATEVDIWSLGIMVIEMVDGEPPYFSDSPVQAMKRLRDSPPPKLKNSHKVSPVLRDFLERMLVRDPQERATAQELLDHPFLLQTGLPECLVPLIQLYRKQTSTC
FGFR1 (human), sequence (P11362 whole entry, looked up): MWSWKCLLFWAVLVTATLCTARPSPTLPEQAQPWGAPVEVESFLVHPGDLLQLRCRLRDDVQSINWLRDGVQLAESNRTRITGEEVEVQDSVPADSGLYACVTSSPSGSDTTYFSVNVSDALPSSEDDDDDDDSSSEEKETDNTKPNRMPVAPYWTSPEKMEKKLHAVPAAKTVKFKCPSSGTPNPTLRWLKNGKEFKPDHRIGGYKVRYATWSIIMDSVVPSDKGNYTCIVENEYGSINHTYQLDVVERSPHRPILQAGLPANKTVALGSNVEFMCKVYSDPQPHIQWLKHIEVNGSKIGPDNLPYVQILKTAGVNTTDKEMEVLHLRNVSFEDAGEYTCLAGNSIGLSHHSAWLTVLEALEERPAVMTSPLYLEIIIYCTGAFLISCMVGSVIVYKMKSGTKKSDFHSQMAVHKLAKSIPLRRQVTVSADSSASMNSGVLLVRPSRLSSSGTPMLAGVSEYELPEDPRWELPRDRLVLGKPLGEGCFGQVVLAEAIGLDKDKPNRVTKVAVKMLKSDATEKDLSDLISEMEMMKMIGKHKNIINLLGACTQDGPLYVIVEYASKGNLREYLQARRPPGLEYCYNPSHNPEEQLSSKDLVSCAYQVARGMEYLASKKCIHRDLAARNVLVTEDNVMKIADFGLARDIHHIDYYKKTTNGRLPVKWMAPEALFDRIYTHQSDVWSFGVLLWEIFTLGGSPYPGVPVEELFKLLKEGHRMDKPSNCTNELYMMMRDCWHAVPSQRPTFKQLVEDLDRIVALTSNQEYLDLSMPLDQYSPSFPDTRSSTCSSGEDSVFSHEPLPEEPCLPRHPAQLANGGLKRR
IKBKE (human), sequence (Q14164 whole entry, looked up): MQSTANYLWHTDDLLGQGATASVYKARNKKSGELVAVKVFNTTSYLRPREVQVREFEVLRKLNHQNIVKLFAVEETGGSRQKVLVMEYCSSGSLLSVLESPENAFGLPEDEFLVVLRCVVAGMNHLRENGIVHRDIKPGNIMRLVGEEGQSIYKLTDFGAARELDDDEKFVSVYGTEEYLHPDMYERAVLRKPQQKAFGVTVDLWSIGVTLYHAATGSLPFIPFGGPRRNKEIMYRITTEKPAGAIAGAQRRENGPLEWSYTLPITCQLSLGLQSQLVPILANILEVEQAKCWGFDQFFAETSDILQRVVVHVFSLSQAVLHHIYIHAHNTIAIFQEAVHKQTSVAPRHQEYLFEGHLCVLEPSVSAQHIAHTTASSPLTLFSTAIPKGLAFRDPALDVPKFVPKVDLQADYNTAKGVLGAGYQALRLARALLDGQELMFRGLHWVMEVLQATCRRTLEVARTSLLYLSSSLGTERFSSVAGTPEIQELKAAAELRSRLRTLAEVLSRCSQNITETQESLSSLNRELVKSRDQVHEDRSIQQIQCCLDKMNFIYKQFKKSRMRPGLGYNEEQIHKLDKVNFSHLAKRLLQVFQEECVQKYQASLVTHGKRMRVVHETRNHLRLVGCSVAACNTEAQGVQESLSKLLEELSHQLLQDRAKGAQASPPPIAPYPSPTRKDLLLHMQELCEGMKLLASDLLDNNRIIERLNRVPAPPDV
DYRK3 (human), sequence (O43781 whole entry, looked up): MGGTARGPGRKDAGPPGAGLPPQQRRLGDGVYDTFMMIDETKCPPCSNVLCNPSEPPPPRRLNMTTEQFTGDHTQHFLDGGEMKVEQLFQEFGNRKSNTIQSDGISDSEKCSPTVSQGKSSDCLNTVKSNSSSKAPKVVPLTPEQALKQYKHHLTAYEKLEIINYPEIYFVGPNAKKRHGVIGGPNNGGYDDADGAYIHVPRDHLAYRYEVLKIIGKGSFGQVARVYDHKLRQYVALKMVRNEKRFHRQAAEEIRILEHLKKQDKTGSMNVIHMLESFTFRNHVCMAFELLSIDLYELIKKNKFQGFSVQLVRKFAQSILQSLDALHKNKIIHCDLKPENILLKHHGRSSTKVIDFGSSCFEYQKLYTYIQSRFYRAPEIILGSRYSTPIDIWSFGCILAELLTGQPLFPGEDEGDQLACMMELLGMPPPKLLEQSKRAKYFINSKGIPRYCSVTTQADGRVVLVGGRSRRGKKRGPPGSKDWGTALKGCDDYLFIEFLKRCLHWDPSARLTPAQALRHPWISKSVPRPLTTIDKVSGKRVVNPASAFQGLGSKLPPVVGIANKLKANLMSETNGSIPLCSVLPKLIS
FLT1 (human), sequence (P17948 whole entry, looked up): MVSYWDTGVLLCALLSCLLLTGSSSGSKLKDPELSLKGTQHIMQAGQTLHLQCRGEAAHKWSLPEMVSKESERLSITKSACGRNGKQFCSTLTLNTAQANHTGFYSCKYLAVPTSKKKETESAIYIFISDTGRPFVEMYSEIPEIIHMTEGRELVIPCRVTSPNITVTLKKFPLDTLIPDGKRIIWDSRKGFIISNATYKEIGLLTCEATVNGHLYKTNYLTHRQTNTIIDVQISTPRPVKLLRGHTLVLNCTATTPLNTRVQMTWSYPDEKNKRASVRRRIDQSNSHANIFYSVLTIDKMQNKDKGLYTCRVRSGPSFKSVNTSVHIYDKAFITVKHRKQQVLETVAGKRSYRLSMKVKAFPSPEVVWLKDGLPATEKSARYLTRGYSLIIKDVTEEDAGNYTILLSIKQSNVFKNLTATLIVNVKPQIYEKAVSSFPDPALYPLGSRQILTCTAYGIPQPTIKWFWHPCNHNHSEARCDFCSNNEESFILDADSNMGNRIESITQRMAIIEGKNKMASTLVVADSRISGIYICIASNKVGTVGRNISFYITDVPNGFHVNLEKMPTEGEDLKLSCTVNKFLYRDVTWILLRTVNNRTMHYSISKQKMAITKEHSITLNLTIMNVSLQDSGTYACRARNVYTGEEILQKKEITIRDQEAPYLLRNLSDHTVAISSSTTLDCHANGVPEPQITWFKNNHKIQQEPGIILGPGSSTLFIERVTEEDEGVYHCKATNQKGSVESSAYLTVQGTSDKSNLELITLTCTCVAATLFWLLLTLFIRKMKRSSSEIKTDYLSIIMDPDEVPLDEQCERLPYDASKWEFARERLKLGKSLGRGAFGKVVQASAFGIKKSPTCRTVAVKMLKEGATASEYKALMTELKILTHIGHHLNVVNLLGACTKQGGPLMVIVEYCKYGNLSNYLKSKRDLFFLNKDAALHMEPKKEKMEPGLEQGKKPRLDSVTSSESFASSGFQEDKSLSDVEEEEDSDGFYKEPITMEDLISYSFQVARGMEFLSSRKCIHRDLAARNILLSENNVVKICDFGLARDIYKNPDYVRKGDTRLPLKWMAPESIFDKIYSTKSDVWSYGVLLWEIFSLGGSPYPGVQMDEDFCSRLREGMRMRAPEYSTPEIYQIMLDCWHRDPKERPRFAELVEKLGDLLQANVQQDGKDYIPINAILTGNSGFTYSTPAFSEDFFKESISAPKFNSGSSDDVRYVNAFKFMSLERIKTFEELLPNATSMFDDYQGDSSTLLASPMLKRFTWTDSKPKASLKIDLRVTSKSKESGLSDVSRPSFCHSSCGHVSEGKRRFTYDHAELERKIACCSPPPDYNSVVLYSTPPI
PIM1 (human), sequence (P11309 whole entry, looked up): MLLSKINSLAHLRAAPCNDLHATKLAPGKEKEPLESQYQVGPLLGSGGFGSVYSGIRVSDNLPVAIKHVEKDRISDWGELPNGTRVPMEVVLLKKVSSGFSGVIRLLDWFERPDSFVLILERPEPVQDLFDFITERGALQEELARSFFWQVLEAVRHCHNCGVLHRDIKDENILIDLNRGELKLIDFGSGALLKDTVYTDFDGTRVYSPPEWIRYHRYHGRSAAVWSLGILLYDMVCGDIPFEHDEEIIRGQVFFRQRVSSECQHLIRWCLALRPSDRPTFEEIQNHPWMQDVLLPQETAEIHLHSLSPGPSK

SMILES: CC(C)n1nc(-c2cc3cc(O)ccc3[nH]2)c2c(N)ncnc21
- per cent of control (IKBKB (human); compound 1.0 µM): 85%
- per cent of control (IKBKB (human); compound 10.0 µM): 84%
- per cent of control (CSNK1D (human); compound 1.0 µM): 50%
- per cent of control (CSNK1D (human); compound 10.0 µM): 9%
- per cent of control (MAPKAPK2 (human); compound 1.0 µM): 96%
- per cent of control (MAPKAPK2 (human); compound 10.0 µM): 94%
- per cent of control (FLT1 (human); compound 1.0 µM): 11%
- per cent of control (FLT1 (human); compound 10.0 µM): 2%
- per cent of control (PIM1 (human); compound 1.0 µM): 74%
- per cent of control (PIM1 (human); compound 10.0 µM): 21%
- per cent of control (TBK1 (human); compound 1.0 µM): 97%
- per cent of control (TBK1 (human); compound 10.0 µM): 95%
- per cent of control (DYRK3 (human); compound 1.0 µM): 10%
- per cent of control (DYRK3 (human); compound 10.0 µM): 2%
- per cent of control (MARK3 (human); compound 1.0 µM): 67%
- per cent of control (MARK3 (human); compound 10.0 µM): 31%
- per cent of control (MKNK1 (human); compound 1.0 µM): 51%
- per cent of control (MKNK1 (human); compound 10.0 µM): 12%
- per cent of control (MELK (human); compound 1.0 µM): 26%
- per cent of control (MELK (human); compound 10.0 µM): 13%
- per cent of control (PAK6 (human); compound 1.0 µM): 80%
- per cent of control (PAK6 (human); compound 10.0 µM): 38%
- per cent of control (PRKCZ (human); compound 1.0 µM): 91%
- per cent of control (PRKCZ (human); compound 10.0 µM): 51%
- per cent of control (RPS6KA5 KD1 KD2 (human); compound 1.0 µM): 105%
- per cent of control (RPS6KA5 KD1 KD2 (human); compound 10.0 µM): 49%
- per cent of control (DYRK2 (human); compound 1.0 µM): 17%
- per cent of control (DYRK2 (human); compound 10.0 µM): 7%
- per cent of control (EPHA2 (human); compound 1.0 µM): 12%
- per cent of control (EPHA2 (human); compound 10.0 µM): 3%
- per cent of control (CDK2 CCNA2 (human); compound 1.0 µM): 78%
- per cent of control (CDK2 CCNA2 (human); compound 10.0 µM): 40%
- per cent of control (BTK (human); compound 1.0 µM): 20%
- per cent of control (BTK (human); compound 10.0 µM): 5%
- per cent of control (FGFR1 (human); compound 1.0 µM): 14%
- per cent of control (FGFR1 (human); compound 10.0 µM): 2%
- per cent of control (MAPK9 (human); compound 1.0 µM): 103%
- per cent of control (MAPK13 (human); compound 1.0 µM): 97%
- per cent of control (MAPK13 (human); compound 10.0 µM): 73%
- per cent of control (PLK1 (human); compound 1.0 µM): 89%
- per cent of control (PLK1 (human); compound 10.0 µM): 47%
- per cent of control (NEK2 (human); compound 1.0 µM): 86%
- per cent of control (NEK2 (human); compound 10.0 µM): 54%
- per cent of control (PAK7 (human); compound 1.0 µM): 69%
- per cent of control (PAK7 (human); compound 10.0 µM): 34%
- per cent of control (PKN2 (human); compound 1.0 µM): 68%
- per cent of control (PKN2 (human); compound 10.0 µM): 22%
- per cent of control (CAMKK2 (human); compound 1.0 µM): 72%
- per cent of control (CAMKK2 (human); compound 10.0 µM): 30%
- per cent of control (CSNK2A1 (human); compound 1.0 µM): 72%
- per cent of control (CSNK2A1 (human); compound 10.0 µM): 40%
- per cent of control (ROCK2 (rat); compound 1.0 µM): 105%
- per cent of control (ROCK2 (rat); compound 10.0 µM): 77%
- per cent of control (BRSK2 (human); compound 1.0 µM): 26%
- per cent of control (BRSK2 (human); compound 10.0 µM): 4%
- per cent of control (IKBKE (human); compound 1.0 µM): 86%
- per cent of control (IKBKE (human); compound 10.0 µM): 64%
- per cent of control (IGF1R (human); compound 1.0 µM): 103%
- per cent of control (IGF1R (human); compound 10.0 µM): 89%
- per cent of control (MAPK12 (human); compound 1.0 µM): 96%
- per cent of control (MAPK12 (human); compound 10.0 µM): 72%
- per cent of control (MAPK1 (human); compound 1.0 µM): 106%
- per cent of control (MAPK1 (human); compound 10.0 µM): 88%
- per cent of control (MAPK15 (human); compound 1.0 µM): 50%
- per cent of control (MAPK15 (human); compound 10.0 µM): 6%

SMILES: COC(=O)Nc1ccc(-c2nc(N3CCOCC3)c3cnn(C4CCN(C(=O)OC)CC4)c3n2)cc1
- per cent of control (IKBKB (human); compound 1.0 µM): 97%
- per cent of control (IKBKB (human); compound 10.0 µM): 100%
- per cent of control (CSNK1D (human); compound 1.0 µM): 90%
- per cent of control (CSNK1D (human); compound 10.0 µM): 92%
- per cent of control (STK3 (human); compound 1.0 µM): 85%
- per cent of control (STK3 (human); compound 10.0 µM): 96%
- per cent of control (MAPKAPK2 (human); compound 1.0 µM): 98%
- per cent of control (MAPKAPK2 (human); compound 10.0 µM): 91%
- per cent of control (FLT1 (human); compound 1.0 µM): 100%
- per cent of control (FLT1 (human); compound 10.0 µM): 88%
- per cent of control (PIM1 (human); compound 1.0 µM): 117%
- per cent of control (PIM1 (human); compound 10.0 µM): 103%
- per cent of control (TBK1 (human); compound 1.0 µM): 96%
- per cent of control (TBK1 (human); compound 10.0 µM): 94%
- per cent of control (DYRK3 (human); compound 1.0 µM): 84%
- per cent of control (DYRK3 (human); compound 10.0 µM): 77%
- per cent of control (MARK3 (human); compound 1.0 µM): 92%
- per cent of control (MARK3 (human); compound 10.0 µM): 107%
- per cent of control (MKNK1 (human); compound 1.0 µM): 96%
- per cent of control (MKNK1 (human); compound 10.0 µM): 92%
- per cent of control (MELK (human); compound 1.0 µM): 87%
- per cent of control (MELK (human); compound 10.0 µM): 75%
- per cent of control (PAK6 (human); compound 1.0 µM): 99%
- per cent of control (PAK6 (human); compound 10.0 µM): 90%
- per cent of control (PRKCZ (human); compound 1.0 µM): 93%
- per cent of control (PRKCZ (human); compound 10.0 µM): 106%
- per cent of control (RPS6KA5 KD1 KD2 (human); compound 1.0 µM): 83%
- per cent of control (RPS6KA5 KD1 KD2 (human); compound 10.0 µM): 86%
- per cent of control (DYRK2 (human); compound 1.0 µM): 92%
- per cent of control (DYRK2 (human); compound 10.0 µM): 96%
- per cent of control (EPHA2 (human); compound 1.0 µM): 106%
- per cent of control (EPHA2 (human); compound 10.0 µM): 104%
- per cent of control (CDK2 CCNA2 (human); compound 1.0 µM): 111%
- per cent of control (CDK2 CCNA2 (human); compound 10.0 µM): 104%
- per cent of control (BTK (human); compound 1.0 µM): 116%
- per cent of control (BTK (human); compound 10.0 µM): 99%
- per cent of control (FGFR1 (human); compound 1.0 µM): 95%
- per cent of control (FGFR1 (human); compound 10.0 µM): 109%
- per cent of control (MAPK9 (human); compound 1.0 µM): 92%
- per cent of control (MAPK9 (human); compound 10.0 µM): 89%
- per cent of control (MAPK13 (human); compound 1.0 µM): 14%
- per cent of control (MAPK13 (human); compound 10.0 µM): 10%
- per cent of control (PLK1 (human); compound 1.0 µM): 105%
- per cent of control (PLK1 (human); compound 10.0 µM): 88%
- per cent of control (NEK2 (human); compound 1.0 µM): 93%
- per cent of control (NEK2 (human); compound 10.0 µM): 101%
- per cent of control (PAK7 (human); compound 1.0 µM): 97%
- per cent of control (PAK7 (human); compound 10.0 µM): 87%
- per cent of control (PKN2 (human); compound 1.0 µM): 117%
- per cent of control (PKN2 (human); compound 10.0 µM): 101%
- per cent of control (CAMKK2 (human); compound 1.0 µM): 102%
- per cent of control (CAMKK2 (human); compound 10.0 µM): 95%
- per cent of control (CSNK2A1 (human); compound 1.0 µM): 99%
- per cent of control (CSNK2A1 (human); compound 10.0 µM): 92%
- per cent of control (ROCK2 (rat); compound 1.0 µM): 92%
- per cent of control (ROCK2 (rat); compound 10.0 µM): 97%
- per cent of control (BRSK2 (human); compound 1.0 µM): 95%
- per cent of control (BRSK2 (human); compound 10.0 µM): 88%
- per cent of control (IKBKE (human); compound 1.0 µM): 90%
- per cent of control (IKBKE (human); compound 10.0 µM): 90%
- per cent of control (IGF1R (human); compound 1.0 µM): 108%
- per cent of control (IGF1R (human); compound 10.0 µM): 101%
- per cent of control (MAPK12 (human); compound 1.0 µM): 55%
- per cent of control (MAPK12 (human); compound 10.0 µM): 17%
- per cent of control (MAPK1 (human); compound 1.0 µM): 109%
- per cent of control (MAPK1 (human); compound 10.0 µM): 108%
- per cent of control (MAPK15 (human); compound 1.0 µM): 94%
- per cent of control (MAPK15 (human); compound 10.0 µM): 98%
